Marks after values point to notes of the source that are not given here.
Experiments:
[1] = system: metaphysis tissue of the femur (cancellous bone); assay: Bone calcium level in cultured femoral metaphysis tissue pieces; format: cell-based, Wistar male rats; conditions: for Bone calcium level: metaphysis tissue, mean ± SE
Experimental: (§1) The femurs were extracted from rats (Wistar male rats; 4 to 5 weeks old) (purchased from Japan SLC Co., Ltd. and fed with solid Oriental yeast (MF)) under anesthesia with ether under a germfree condition. The femurs were each washed with 0.25 M sucrose solution, and then divided into the diaphysis (cortical bone) and metaphysis (cancellous bone). The bone tissue pieces were cultured in a culture medium (Dulbecco's modified culture medium containing 5% of glucose; serum-free medium) containing. β-cryptoxanthin, etc. at […] in an incubator filled with 5% CO2-95% air for 48 hours. β-cryptoxanthin used was “β-cryptoxanthin” of Extrasynthase Co., cycloheximide used was “Cycloheximide” of Sigma Co. Ltd., β-carotene was “β-carotene” of Sigma ? , xanthine was “Xanthine” of Sigma Co, Ltd., parathormone was “Parathormone” of Sigma Co. Ltd. and prostaglandin E2 was “Prostaglandin E2” of Sigma Co. Ltd. In the control, only the culture medium was used without β-cryptoxanthin or the like.
(§2) Bone calcium level in the bone tissue was determined. After the culture in the incubator, the tissue pieces were washed with 0.25 M sucrose solution and dried and then the bone was weighed. Then concentrated nitric acid was added to the tissue pieces. After the incineration at 120° C. for 12 hours, the bone calcium level was determined with an atomic absorption photometer (“Perkin-Elmer 303” of Perkin-Elmer Co.).
The bone component-increasing effect of β-cryptoxanthin was examined. […] Calcium level in the bone tissue, alkaline phosphatase activity (enzyme for accelerating the bone calcification) and the amount of deoxyribonucleic acid (DNA; index of number of cells in the bone tissue) were determined by the same methods as in Example 1. In each test group, the determination vas conducted 6 to 8 times and the results were represented by the average value and the standard error. The significant difference was determined by Student's t-test. The result was compared with that of the control. When P value was not higher than 0.01 (**) or not higher than 0.05 (*), the results were statistically significant.

[2] = system: diaphysis tissue of the femur; assay: Bone resorption (PTH or prostaglandin E2): bone calcium level in cultured diaphysis tissue; format: cell-based, Wistar male rats
Experimental: as §1, §2
The bone mineral dissolution-inhibiting effect of β-cryptoxanthin was examined. […] PTH also has a pathophysiologic role on the expression of osteoporosis caused by the aging. It is known that prostaglandin E2 also causes physiologic bone mineral dissolution. The diaphysis or metaphysis tissue of the femur was cultured in the presence of 10^−7 M PTH or 10^−5 M prostaglandin E2 for 48 hours and then calcium level in the bone tissue was determined. In another experiment, the culture was conducted in the same manner as that described above in the coexistence of them and β-cryptoxanthin (10^−8 M to 10^−6 M) and then calcium level in the bone tissue was determined. In each test group, the determination was conducted 6 to 8 times and the results were represented by the average value and the standard error. The significant difference was determined by Student's t-test. The result was compared with that of the control. When P value was not higher than 0.01 (*) as compared with the control or it is not higher than 0.1 (#) as compared with that of prostaglandin E2, the results were statistically significant.

[3] = system: diaphysis tissue of the femur (cortical bone); assay: Bone calcium level in cultured femoral diaphysis tissue pieces; format: cell-based, Wistar male rats; conditions: for Bone calcium level: diaphysis tissue, mean ± SE
Experimental: as §1, §2
The bone component-increasing effect of β-cryptoxanthin was examined. The diaphysis and metaphysis tissue of the femur was cultured in the above-described culture medium containing β-cryptoxanthin ([…]) for 48 hours. Calcium level in the bone tissue, alkaline phosphatase activity (enzyme for accelerating the bone calcification) and the amount of deoxyribonucleic acid (DNA; index of number of cells in the bone tissue) were determined by the same methods as in Example 1. In each test group, the determination vas conducted 6 to 8 times and the results were represented by the average value and the standard error. The significant difference was determined by Student's t-test. The result was compared with that of the control. When P value was not higher than 0.01 (**) or not higher than 0.05 (*), the results were statistically significant.

[4] = system: rats, femoral metaphysis tissue; assay: Oral administration to rats: bone DNA level in metaphysis tissue; format: in vivo, Wistar male rats; conditions: for Bone DNA level: metaphysis tissue
Experimental: (§3) DNA level was determined as an index of the number of cells in the bone tissue. After the culture in an incubator, the tissue pieces were washed with 0.25 M sucrose solution and then the wet weight of them was determined. They were pulverized in 4 ml of 0.1 N NaOH. After the osmosis at 4° C. for 24 hours, the liquid mixture was centrifuged. The supernatant was taken as the sample and determined by a method of Ceriotti et al. (J. Biol. Chem., 241; 34-77, 1951). Namely, 1 ml of concentrated hydrochloric acid and 1 ml of 0.04% indole solution were added to 2 ml of the sample and then the resultant mixture was heated to 100° C. in boiling water. After quenching followed by the extraction with 4 ml of chloroform, the chloroform layer was taken to determine bone DNA level with a spectrophotometer (490 nm).
(§4) A solution of β-cryptoxanthin in corn oil having one of three kinds of concentration (10, 25 and 50 μg/ml corn oil) was orally administered to rats (Wistar male rats; 4 to 5 weeks old) in an amount/100 g body weight with a probe once a day for 7 days. The rats were sacrificed 24 hours after the final administration. The femurs were excised. The muscles, etc. were taken out and each femur was divided into diaphysis and metaphysis to determine the bone components.
(§5) Tests were conducted to examine whether the bone components are increased by the oral administration of β-cryptoxanthin to rats or not. β-cryptoxanthin was administered for 7 days (10, 25 or 50 μg/100 g body weight/day) and then calcium level in the bone tissue, determination of alkaline phosphatase activity (enzyme for the acceleration of the calcification of bones) and the amount of deoxyribonucleic acid (DNA: index of the number of the cells in the bone tissue) were determined by the same methods as those in Example 1. In each test group, the determination was conducted 6 times and the results were represented by the average value and the standard error. The significant difference was determined by Student's t-test. The result was compared with that of the control. When P value was not higher than 0.01 (*) as compared with the control, the results were statistically significant.

[5] = system: rats, femoral diaphysis tissue; assay: Oral administration to rats: bone DNA level in diaphysis tissue; format: in vivo, Wistar male rats; conditions: for Bone DNA level: diaphysis tissue
Experimental: as §3, §4, §5

[6] = 10^−8 to 10^−5 M, 48 h culture, vs control
[7] = Table 2 (protein synthesis inhibitor experiment), 10^−6 M (each agent), n=6
[8] = β-cryptoxanthin 10^−6 M with cycloheximide
[9] = oral 10 μg/100 g body weight/day for 7 days
[10] = oral 25 μg/100 g body weight/day for 7 days
[11] = oral 50 μg/100 g body weight/day for 7 days

SMILES: CC1=C(/C=C/C(C)=C/C=C/C(C)=C/C=C/C=C(C)/C=C/C=C(C)/C=C/C2=C(C)C[C@@H](O)CC2(C)C)C(C)(C)CCC1 [β-cryptoxanthin]
- Effect on calcium level in the metaphysis tissue (in words) [1, 6]: significant increase
- Bone calcium level [1, 7]: 220.0 ± 3.25* mg/g dry weight
- Bone calcium level ([1]; 10^−5 M, 48 h culture): 213.5 ± 5.59** mg/g dry weight
- Bone calcium level ([1]; 10^−6 M, 48 h culture): 216.8 ± 2.84** mg/g dry weight
- Bone calcium level ([1]; 10^−7 M, 48 h culture): 223.6 ± 9.27** mg/g dry weight
- Bone calcium level ([1]; 10^−8 M, 48 h culture): 204.7 ± 6.40** mg/g dry weight
- Calcium level in metaphysis tissue increased by β-cryptoxanthin: change in the presence of cycloheximide (in words) [1, 8]: significantly lowered
- Control of prostaglandin E2-caused reduction of calcium level in the bone tissue (in words) ([2]; diaphysis tissue, β-cryptoxanthin 10^−5 to 10^−6 M (so in the source) with prostaglandin E2 10^−5 M): completely controlled
- Control of PTH-caused reduction of calcium level in the diaphysis tissue (in words) ([2]; β-cryptoxanthin 10^−8 to 10^−6 M in the presence of PTH): significantly controlled
- Effect on calcium level in the diaphysis tissue (in words) [3, 6]: significant increase
- Bone calcium level [3, 7]: 275.1 ± 4.50* mg/g dry weight
- Bone calcium level ([3]; 10^−5 M, 48 h culture): 291.7 ± 2.29** mg/g dry weight
- Bone calcium level ([3]; 10^−6 M, 48 h culture): 272.2 ± 3.15** mg/g dry weight
- Bone calcium level ([3]; 10^−7 M, 48 h culture): 269.9 ± 6.26** mg/g dry weight
- Bone calcium level ([3]; 10^−8 M, 48 h culture): 249.6 ± 3.33** mg/g dry weight
- Calcium level in diaphysis tissue increased by β-cryptoxanthin: change in the presence of cycloheximide (in words) [3, 8]: significantly lowered
- Effect on DNA in the bone tissue, metaphysis, after oral administration (in words) ([4]; 10, 25 or 50 μg/100 g body weight/day, 7 days): significantly increased
- Bone DNA level [4, 9]: 4.10 ± 0.24* mg/g bone wet weight
- Bone DNA level [4, 10]: 4.25 ± 0.21* mg/g bone wet weight
- Bone DNA level [4, 11]: 4.01 ± 0.18* mg/g bone wet weight
- Effect on DNA in the bone tissue, diaphysis, after oral administration (in words) ([5]; 25 or 50 μg/100 g body weight/day, 7 days): significantly increased
- Bone DNA level [5, 9]: 1.95 ± 0.18 mg/g bone wet weight
- Bone DNA level [5, 10]: 3.01 ± 0.23* mg/g bone wet weight
- Bone DNA level [5, 11]: 2.53 ± 0.20* mg/g bone wet weight

Reference: US8148431B2, “Osteogenesis promoter containing β-cryptoxanthin as the active ingredient” (Kemin Health, L.C., priority 2002, dated 2012)
